The record followed here is patent US20130101582A1, “Tiki1 and Tiki2, Wnt Inhibitors” (CHILDREN'S MEDICAL CENTER CORPORATION, priority 2010, published 2013).

For data set [1], the system named is Xenopus embryos. Kind of data set: Organizer gene expression in morpholino-injected whole Xenopus embryos (Table 1). The data set is classed as in vivo. More on the design: Whole embryos displaying change in gene expression: Reduced, Percentage (%): concentration or dose not given beside the values. How it is done: (§1) A functional cDNA expression screen was performed using arrayed Xenopus cDNAs to identify novel genes involved in AP patterning and Wnt signaling. Procedures for embryo manipulation, reverse transcription PCR and in situ hybridization were performed as previously described (Tamai, K. et al., Nature 407, 530-535 (2000)). The Arrayed Xenopus tropicalis full length cDNAs were used for the screening as performed previously (Kato, Y. et al., Nature 418, 641-646 (2002)). cDNA pools (in the CS107 vector) that contain 96 independent clones were transcribed in vitro using SP6 polymerase, and the resulting mRNA pools were injected into the dorsal side of the embryo at 4-cell stage at the dose of 10 ng RNA/embryo. Injected embryos were scored at stage 30-31 for enlarged or diminished anterior development. The positive pools were divided into smaller pools and the same process was repeated until a single cDNA was identified.
HA-Tiki1 mRNA injection rescued the effect of Tiki1MO on all head organizer genes examined (Table 1).

The subject of data set [2] is Xenopus embryos. Kind of data set: Anterior neural marker expression in morpholino-injected whole embryos (Table 2). It is filed as in vivo. The conditions noted are these: stage 16. How it is done:
as §1
The specific expression in and the requirement for the formation of the head organizer imply Tiki1 function in anterior neural patterning. Tiki1MO was injected with fluorescein dextran (FLD, as a lineage tracer) into one dorsal-animal blastomeres at the 8-cell stage and analyzed expression of anterior neural markers at stage 16. Tiki1 MO suppressed the expression of, in the injected half of the embryo, forebrain marker BF1 and Otx2 (Table 2). […] HA-Tiki1 mRNA injection rescued the expression of BF1, Otx2, and En2 in Tiki1MO-injected embryos (Table 2).

Data set [3] deals with Xenopus embryos. Kind of data set: Tiki1MO anterior development/head formation phenotype. The conditions noted are these: 20 ng injected into two dorsal blastomeres of 8-cell stage embryos. It is filed as in vivo. As for the experimental part:
(§2) 20 ng of Tiki1MO was injected into two dorsal blastomeres of 8-cell stage embryos.

The subject of data set [4] is Xenopus Tiki1 protein synthesis. Kind of data set: Tiki1 protein synthesis in embryos with morpholino, Western blotting of animal caps. The data set is classed as in vivo. As for the experimental part:
FIG. 4A is a gel showing that Xenopus Tiki1 protein synthesis is specifically targeted by an antisense morpholino oligonucleotide (MO). 500 pg mRNA for Tiki1-FLAG (targeted by MO) or HA-Tiki1 (resistant to MO) were injected with or without the Tiki1MO (5, 10, 20, 40 ng) into the animal pole at the 2-cell stage, and animal caps were dissected at stage 10 for Western blotting.
as §2
On the technique in general: A western blot detects proteins with antibodies after separation by electrophoresis.

The target in data set [5] is T1, Recombinant human WNT3A protein (Homo sapiens, UniProt P56704). Kind of data set: In vitro incubation of recombinant WNT3A with purified protein, Triton X-114 phase separation. The following applies: purified protein incubated with recombinant human WNT3A. It is filed as biochemical. As for the experimental part:
FIG. 6G is a gel showing that recombinant WNT3A was incubated with Krm2N or Tiki2N purified from WCL (top) or from CM (bottom) and was subjected to Triton X-114 phase separation.
FIG. 6H is a gel showing that Recombinant WNT3A was incubated with Krm2N or Tiki2N or Tiki2NΔ. purified from WCL and was subjected to Triton X-114 phase separation.
(§3) Recombinant human Tiki2N, which is the ectodomain harboring the conserved Tiki domain (FIG. 6J), was purified, via tandem affinity procedures from HEK293T cell extracts or CM.

In data set [6] the target is T1, Recombinant human WNT3A protein. Kind of data set: Acyl-biotinyl exchange (ABE) analysis of WNT3A after in vitro incubation. The data set is classed as biochemical. The following applies: compared with WNT3A incubated with Krm2N. As for the experimental part:
FIG. 6I is a gel showing the results of ABE analysis of WNT3A after in vitro incubation with Krm2N or Tiki2N Biotinylation of WNT3A was much reduced after incubation with Tiki2N compared to that of WNT3A incubated with Krm2N.
Biotinylation of Wnt3a secreted in the presence of Tiki2 was much reduced compared to that of Wnt3a from control cells (FIG. 6C). This reduction of available thioester linkage indicates depalmitoylation of Wnt3a at a cysteine residue, e.g., C77, in the presence of Tiki2
as §3

Another data set has as its target Wnt3a (Mus musculus, UniProt P27467). Kind of data set: Triton X-114 phase separation of Wnt3a secreted from Tiki-expressing cells. The data set is classed as cell-based. More on the design: expressed in transfected cells; host or cells: mouse L cells (Wnt3a-expressing); HEK293T. The following applies: HEK293T cells. From the text:
FIG. 6A is a gel showing that Tiki inactivates Wnt3a by regulating Wnt3a acylation/palmitoylation. A Triton X-114 phase separation experiment is shown in 6A. […] T, total; Aq, aqueous; De, detergent.
FIG. 6B is a gel showing that Wnt3a secreted from Tiki1 or Tiki2 but not GFP-expressing HEK293T cells partitioned in the aqueous phase.
C77 palmitoylation is required for Wnt3a activity (Willert, K. et al., Nature 423, 448-452 (2003)) and binding to both Fz and LRP6 (Komekado, H. et al., Genes Cells 12, 521-534 (2007); Cong, F. et al., Development 131, 5103-5115 (2004)), while S209 acylation is critical for Wnt3a secretion (Takada, R. et al., Dev Cell 11, 791-801 (2006)). Thus Tiki proteins may affect C77 palmitoylation but not S209 acylation. The palmitate adduct at C77 is the primary contributor to Wnt3a hydrophobicity because palmitoylated Wnt3a is partitioned in the Triton X-114 detergent phase whereas Wnt3a lacking the palmitate is soluble in the aqueous phase (Willert, K. et al., Nature 423, 448-452 (2003); Komekado, H. et al., Genes Cells 12, 521-534 (2007)).

Where [7] appears, read: gene Chd, stage 10.5, injected in two dorsal blastomeres at 8-cell stage.
Setting [8] is: gene Gsc st.13 (prechordal plate, neurula stage).

T1 sequence (P56704 19-352): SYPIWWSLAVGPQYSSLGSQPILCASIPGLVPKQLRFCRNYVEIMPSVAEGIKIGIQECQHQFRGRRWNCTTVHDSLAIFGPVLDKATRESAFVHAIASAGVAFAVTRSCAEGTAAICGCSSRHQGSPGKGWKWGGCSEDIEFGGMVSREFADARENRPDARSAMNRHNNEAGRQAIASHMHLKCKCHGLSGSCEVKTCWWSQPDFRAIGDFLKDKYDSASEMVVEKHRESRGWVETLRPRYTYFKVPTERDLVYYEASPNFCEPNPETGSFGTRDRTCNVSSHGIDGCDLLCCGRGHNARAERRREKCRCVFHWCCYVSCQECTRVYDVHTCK
Wnt3a, sequence (P27467 19-352): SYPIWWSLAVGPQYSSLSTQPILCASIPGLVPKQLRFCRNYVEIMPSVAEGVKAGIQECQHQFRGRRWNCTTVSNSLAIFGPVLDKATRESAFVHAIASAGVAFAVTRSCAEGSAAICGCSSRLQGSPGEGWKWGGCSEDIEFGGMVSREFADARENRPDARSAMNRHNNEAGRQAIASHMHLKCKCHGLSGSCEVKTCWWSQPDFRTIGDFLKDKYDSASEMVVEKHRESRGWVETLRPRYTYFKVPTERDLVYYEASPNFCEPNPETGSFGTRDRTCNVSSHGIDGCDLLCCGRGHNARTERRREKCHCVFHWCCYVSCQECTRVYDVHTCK

Turning to “Tiki1 MO: morpholino antisense oligonucleotide against Tiki1, 5′-CCAAATGATTACCATCATAGCTCAG-3′ (SEQ ID NO:13) (all phosphorodiamidate morpholino (PMO))”, the “Whole embryos displaying change in gene expression: Absent, Percentage (%)” value with Xenopus embryos [1] (setting [7]) is on record as 0%; in the data set with Xenopus embryos [1] (gene Dkk1, stage 10.5) it was 25%; in the data set with Xenopus embryos [1] (setting [8]), 35%; with Xenopus embryos [1] (gene Gsc, stage 10.5), 0%; in the data set with Xenopus embryos [1] (gene Lim1, stage 10.5), 28%; with Xenopus embryos [1] (gene Otx2, stage 10.5), 7%. For the same molecule, the “Whole embryos displaying change in gene expression: Absent, Percentage (%)” value came to 0% in the data set with Xenopus embryos [1] (gene Xnot, stage 10.5); 0% in the data set on Xenopus embryos [1] (gene Xnr3, stage 10.5); 63% in the data set on Xenopus embryos [2] (gene BF1, injected into one dorsal-animal blastomere at 8-cell stage); 40% in the data set on Xenopus embryos [2] (gene En-2); 0% in the data set on Xenopus embryos [2] (gene HoxB9); 35% in the data set on Xenopus embryos [2] (gene Otx2). Also, the “Whole embryos displaying change in gene expression: NC (No Change), Percentage (%)” value is given as 64% with Xenopus embryos [1] (setting [7]); 35% in the data set on Xenopus embryos [1] (gene Dkk1, stage 10.5); 33% with Xenopus embryos [1] (setting [8]); 34% in the data set with Xenopus embryos [1] (gene Gsc, stage 10.5); 18% with Xenopus embryos [1] (gene Lim1, stage 10.5); 33% in the data set with Xenopus embryos [1] (gene Otx2, stage 10.5). Also, the “Whole embryos displaying change in gene expression: NC (No Change), Percentage (%)” value in the data set on Xenopus embryos [1] (gene Xnot, stage 10.5) was determined as 87%; in the data set with Xenopus embryos [1] (gene Xnr3, stage 10.5), 93%; with Xenopus embryos [2] (gene BF1) it was 14%; in the data set with Xenopus embryos [2] (gene En-2), 35%; in the data set on Xenopus embryos [2] (gene HoxB9) it was 100%; with Xenopus embryos [2] (gene Otx2) it was 35%. In addition, the “Whole embryos displaying change in gene expression: Reduced, Percentage (%)” value in the data set on Xenopus embryos [1] (setting [7]) was 36%; in the data set on Xenopus embryos [1] (gene Dkk1, stage 10.5) it was 40%; with Xenopus embryos [1] (setting [8]), 32%; in the data set on Xenopus embryos [1] (gene Gsc, stage 10.5), 66%; in the data set on Xenopus embryos [1] (gene Lim1, stage 10.5) it was 54%; in the data set with Xenopus embryos [1] (gene Otx2, stage 10.5), 60%. Also, the “Whole embryos displaying change in gene expression: Reduced, Percentage (%)” value was determined as 13% in the data set with Xenopus embryos [1] (gene Xnot, stage 10.5); 7% in the data set on Xenopus embryos [1] (gene Xnr3, stage 10.5); 23% in the data set on Xenopus embryos [2] (gene BF1); 25% in the data set on Xenopus embryos [2] (gene En-2); 0% in the data set on Xenopus embryos [2] (gene HoxB9); 30% in the data set on Xenopus embryos [2] (gene Otx2). Further, the “Whole embryos displaying change in gene expression: increased, Percentage (%)” value in the data set on Xenopus embryos [2] (gene BF1), with Xenopus embryos [2] (gene En-2), in the data set with Xenopus embryos [2] (gene HoxB9) and in the data set with Xenopus embryos [2] (gene Otx2) was 0% each time. In the data set with Xenopus embryos [3], the “Injected embryos that developed anterior defects” value is “roughly 50%”. Moreover, the “Synthesis of HA-Tiki1” value in data set [4] (HA-Tiki1 mRNA lacks the MO complementary sequence) is listed as “unable to block the synthesis”. The “Synthesis of exogenously expressed Tiki1 (Tiki1-FLAG)” value in data set [4] (Tiki1-FLAG mRNA targeted by MO, animal caps stage 10) was “specifically blocked the synthesis”.

B1: Tiki2N: Recombinant human Tiki2N, the ectodomain harboring the conserved Tiki domain (protein)
chain: RPQPPDGGQCRPPGSQRDLNSFLWTIRRDPPAYLFGTIHVPYTRVWDFIPDNSKAAFQASTRVYFELDLTDPYTISALASCQLLPHGENLQDVLPHELYWRLKRHLDYVKLMMPSWMTPAQRGKGLYADYLFNAIAGNWERKRPVWVMLMVNSLTERDVRFRGVPVLDLYLAQQAEKMKKTTGAVEQVEEQCHPLNNGLNFSQVLFALNQTLLQQESVRAGSLQASYTTEDLIKHYNCGDLSAVIFNHDTSQLPNFINTTLPPHEQVTAQEIDSYFRQELIYKRNERMGKRVMALLRENEDKICFFAFGAGHFLGNNTVIDILRQAGLEVDHTPAGQAIHSPAPQSPAPSPEGTSTSPAPVTPAAAVPEAPSVTPTAPPEDEDPALSPHLLLPDSLSQLEEFGRQRKWHKRQSTHQRPRQFNDLWVRIEDSTTASPPPLPLQPTHSSGTAKPPFQLSDQLQQQDPPG
modifications: left off: small tags and cut ends
notes: Recombinant human Tiki2N, the ectodomain harboring the conserved Tiki domain
As to B1, the “Partitioning of WNT3A in Triton X-114 phase separation after in vitro incubation” value in data set [5] is recorded as “became segregated in the aqueous phase”. The “Biotinylation of WNT3A in ABE assay after in vitro incubation” value in data set [6] was “biotinylated to a much less extent”. Besides, in the data set with Wnt3a, the “Partitioning of secreted Wnt3a in Triton X-114 phase separation” value is “partitioned exclusively in the aqueous phase”.
